Source: patent US7858637B2, “Administration of TLR7 ligands and prodrugs thereof for treatment of infection by hepatitis C virus” (priority 2003, dated 2010)
Like-named read-outs stand apart in the source and are kept apart here.

Legend:
[1] = system: human peripheral blood mononuclear cells (PBMC); assay: PBMC assay of interferon alpha release (masking); format: cell-based
Description: A typical experiment would use human peripheral blood mononuclear cells (PBMC) isolated from a healthy donor and placed in replicate cell culture wells; typically, 2×10^6 to 5×10^6 cells are placed in each well. The PBMC are incubated in the absence of test compounds at 37° C. in a humidified atmosphere containing 5% CO2 for 24 hours to allow stabilization to the culture conditions, and then 100 micromolar isatoribine, the TLR7 ligand and a corresponding TLR7 ligand prodrug are added to separate wells containing PBMC from the same donor; untreated controls are included. The concentrations of TLR7 ligand and TLR7 ligand prodrug may be varied to suit the particular experiment, and the PBMC cultures are then incubated at 37° C. in a humidified atmosphere containing 5% CO2 for a period of time ranging from two hours to 48 hours. Samples of cell culture supernate media are taken during the incubation. These are assayed for cytokine production by ELISA. Additionally the amount of TLR7 ligand and TLR7 ligand prodrug remaining at the end of the incubation may be assayed by LC-MS. Cytokine production is calculated relative to production in the isatoribine control, following subtraction of the cytokine production in untreated controls.
Thus, if the TLR7 ligand generates more interferon alpha (a conveniently measured cytokine) than does the corresponding TLR7 ligand prodrug after a similar duration of exposure and concentration, the TLR7 ligand prodrug may be deemed a “masked” TLR7 ligand prodrug.

HCV replicon = assay: HCV replicon-based viral bioassay with supernatants of compound-treated PBMC; format: cell-based, hepatitis C virus
Description: A quantitative assay was developed which is based on measuring the activity of the luciferase reporter gene that was integrated into an HCV replicon. By using this system, interferons from TLR7 agonist-treated PBMCs were measured and their inhibitory activity was assessed using the luciferase reporter replicon.
Human PBMCs isolated from a healthy donor were placed in replicate cell culture wells (5×10^6 cells per well). The PBMCs are incubated in the absence of test compounds at 37° C. in a humidified atmosphere containing 5% CO2 for 24 hours to allow stabilization to the culture conditions, and then the TLR7 ligand or a drug free control is added to replicate wells containing PBMCs from the same donor. The concentrations of TLR7 ligand may be varied to suit the particular experiment, and the PBMC cultures are then incubated at 37° C. in a humidified atmosphere containing 5% CO2 for eight hours. Samples of cell culture supernatant are taken at the eight hour time point (or twenty four hour time point in case of Loxoribine and its prodrugs) from TLR7 ligand treated and control wells and are assayed for interferon-alpha production by ELISA. Supernatants from compound-treated cells and a no-drug control were diluted at 1:10, 1:100, and 1:1000 in RPMI media and applied to a 96-well plate of Huh7 hepatocyte cells containing the luciferase reporter replicon. Cells were incubated for 48 hours at 37° C. in a tissue culture incubator.
After the incubation period, the 96-well plates are washed 2× with PBS and are lysed with passive lysis buffer (Promega). Plates are shaken at room temperature for 20 minutes and standard luciferase assay reagent (Promega) is added to each well by injection and the plate is read on an Lmax luminometer (Molecular Devices).
A supernatant collected from PBMC cells non-exposed to the compound and diluted as specified in the first column was used as a control (“Blank supernatant”). The PBMC cells were isolated from a single blood donor as specified.

[2] = Homo sapiens, PBMC, Table 10, 100 μM, 24 hours exposure, read-out: Amount of INFa relative to that induced by isatoribine at 100 μM
[3] = Homo sapiens, PBMC, Table 11, 100 μM, 24 hours exposure, read-out: Amount of INFa relative to that induced by isatoribine at 100 μM
[4] = Homo sapiens, PBMC, Table 13, 100 μM, 24 hours exposure, read-out: Amount of INFa relative to that induced by isatoribine at 100 μM
[5] = Homo sapiens, PBMC, Table 14, 24 hours exposure, read-out: Amount of INFa relative to that induced by isatoribine at 100 μM
[6] = Homo sapiens, PBMC, Table 9, 100 μM, 24 hours exposure, same blood donor, read-out: Amount of INFa relative to that induced by isatoribine at 100 μM

C=CCn1c(=O)n([C@@H]2O[C@H](CO)[C@@H](O)[C@H]2O)c2nc(N)[nH]c(=O)c21 [Compound 17, 7-allyl-2-amino-9-β-D-ribofuranosyl-7,9-dihydro-1H-purine-6,8-dione]
Emax at 100 µM [1, 2]: 50%
HCV replicon inhibition (HCV replicon; Table 4 No. 1, PBMC exposed 24 hours to 100 μM, donor FL75864, supernatant dilution 1:10): 100%
HCV replicon inhibition (HCV replicon; Table 4 No. 1, PBMC exposed 24 hours to 100 μM, donor FL75864, supernatant dilution 1:100): 74%
HCV replicon inhibition (HCV replicon; Table 4 No. 1, PBMC exposed 24 hours to 100 μM, donor FL75864, supernatant dilution 1:1000): 17%

CC(C)Cn1cnc2c(N)nc3ccccc3c21 [Compound 31, 1-Isobutyl-1H-imidazo[4,5-c]quinolin-4-ylamine]
Emax at 100 µM ([1]; Homo sapiens, PBMC, 24 h, read-out: Amount of INFa relative to that induced by isatoribine at 100 μM): 60 to 76%
HCV replicon inhibition (HCV replicon; Table 5 No. 1, PBMC exposed 8 hours to 3.2 μM, donor FL75287, supernatant dilution 1:10): 100%
HCV replicon inhibition (HCV replicon; Table 5 No. 1, PBMC exposed 8 hours to 3.2 μM, donor FL75287, supernatant dilution 1:100): 100%
HCV replicon inhibition (HCV replicon; Table 5 No. 1, PBMC exposed 8 hours to 3.2 μM, donor FL75287, supernatant dilution 1:1000): 89%
HCV replicon inhibition (HCV replicon; Table 5 No. 2, PBMC exposed 8 hours to 3.2 μM, donor FL75287, supernatant dilution 1:10): 100%
HCV replicon inhibition (HCV replicon; Table 5 No. 2, PBMC exposed 8 hours to 3.2 μM, donor FL75287, supernatant dilution 1:100): 75%
HCV replicon inhibition (HCV replicon; Table 5 No. 2, PBMC exposed 8 hours to 3.2 μM, donor FL75287, supernatant dilution 1:1000): 1%

CCCCCOC(=O)Nc1nc2ccccc2c2c1ncn2CC(C)C [Compound 34, (1-Isobutyl-1H-imidazo[4,5-c]quinolin-4-yl)-carbamic acid pentyl ester]
Emax at 100 µM [1, 3]: 0%

CCOC(=O)Nc1nc(-c2ccccc2)c(Br)c(=O)[nH]1 [Compound 36, (5-Bromo-6-oxo-4-phenyl-1,6-dihydro-pyrimidin-2-yl)-carbamic acid ethyl ester]
Emax at 100 µM [1, 4]: 0%

CCOc1nc(N)nc(-c2ccccc2)c1Br [Compound 37, 5-Bromo-4-ethoxy-6-phenyl-pyrimidin-2-ylamine]
Emax at 100 µM [1, 4]: 0%

C=CCn1c(=O)n([C@@H]2O[C@H](CO)[C@@H](O)[C@H]2O)c2nc(N)ncc21 [Compound 43, 7-Allyl-2-amino-9-β-D-ribofuranosyl-7,9-dihydro-purin-8-one]
Emax at 100 µM [1, 2]: 0%

C=CCn1c(=O)n([C@@H]2O[C@H](CO)[C@@H](O)[C@H]2O)c2nc(N)nc(OCC)c21 [Compound 45, 7-Allyl-2-amino-6-ethoxy-9-β-D-ribofuranosyl-7,9-dihydro-purin-8-one]
Emax at 100 µM [1, 2]: 0%

Nc1ncc(Br)c(-c2ccccc2)n1 [Compound 48, 5-Bromo-4-phenyl-pyrimidin-2-ylamine]
Emax at 100 µM [1, 4]: 0%

CCCCCOC(=O)Nc1nc(-c2ccccc2)c(Br)c(=O)[nH]1 [Compound 49, (5-Bromo-6-oxo-4-phenyl-1,6-dihydro-pyrimidin-2-yl)-carbamic acid pentyl ester]
Emax at 100 µM [1, 4]: 0%

CCOC(=O)Nc1nc2ccccc2c2c1ncn2CC(C)C [Compound 50, (1-Isobutyl-1H-imidazo[4,5-c]quinolin-4-yl)-carbamic acid ethyl ester]
Emax at 100 µM [1, 3]: 0%

CCOC(=O)Oc1nc2c(N)nc(OCCOC)nc2n1Cc1ccccc1 [Compound 51, Carbonic acid 6-amino-9-benzyl-2-(2-methoxy-ethoxy)-9H-purin-8-yl ester ethyl ester]
Emax at 32 µM ([1]; Homo sapiens, PBMC, Table 14, 32 μM, 24 hours exposure, read-out: Amount of INFa relative to that induced by isatoribine at 100 μM): 18%

CCCCCOC(=O)Oc1nc2c(N)nc(OCCOC)nc2n1Cc1ccccc1 [Compound 54, Carbonic acid 6-amino-9-benzyl-2-(2-methoxy-ethoxy)-9H-purin-8-yl ester pentyl ester]
Emax at 10 µM [1, 5]: 15%

COCCOc1nc(N)c2ncn(Cc3ccccc3)c2n1 [Compound 62, 9-Benzyl-2-(2-methoxy-ethoxy)-9H-purin-6-ylamine]
Emax at 0.1 µM ([1]; Homo sapiens, PBMC, Table 14, 0.1 μM, 24 hours exposure, read-out: Amount of INFa relative to that induced by isatoribine at 100 μM): 0%

CCOc1nc2c(N)nc(OCCOC)nc2n1Cc1ccccc1 [Compound 64, 9-Benzyl-8-ethoxy-2-(2-methoxy-ethoxy)-9H-purin-6-ylamine]
Emax at 10 µM [1, 5]: 0%

COCCOc1nc(N)c2nc(OC)n(Cc3ccccc3)c2n1 [Compound 65, 9-Benzyl-8-methoxy-2-(2-methoxy-ethoxy)-9H-purin-6-ylamine]
Emax at 100 µM ([1]; Homo sapiens, PBMC, Table 14, 100 μM, 24 hours exposure, read-out: Amount of INFa relative to that induced by isatoribine at 100 μM): 0%

C=CCn1c(=O)n([C@@H]2O[C@H](COC(=O)[C@@H](N)C(C)C)[C@@H](O)[C@H]2O)c2nc(N)[nH]c(=O)c21 [Compound 68, 7-Allyl-2-Amino-9-(5′-O-L-valinyl-β-D-ribofuranosyl)-7,9-dihydro-1H-purine-6,8-dione]
Emax at 100 µM [1, 2]: 0%

CCOc1nc(N)nc2c1sc(=O)n2[C@@H]1O[C@H](CO)[C@@H](O)[C@H]1O [Compound 77, 5-Amino-7-ethoxy-3-β-D-ribofuranosyl-thiazolo[4,5-d]pyrimidin-2-one]
Emax at 100 µM [1, 6]: 0%

COc1nc(N)nc2c1sc(=O)n2[C@@H]1O[C@H](CO)[C@@H](O)[C@H]1O [Compound 79, 5-Amino-7-methoxy-3-β-D-ribofuranosyl-thiazolo[4,5-d]pyrimidin-2-one]
Emax at 100 µM [1, 6]: 0%

CCOC(=O)NCOc1nc(N)nc2c1sc(=O)n2[C@@H]1O[C@H](CO)[C@@H](O)[C@H]1O [Compound 82, (5-Amino-2-oxo-3-β-D-ribofuranosyl-2,3-dihydro-thiazolo[4,5-d]pyrimidin-7-yloxymethyl)-carbamic acid ethyl ester]
Emax at 100 µM [1, 6]: 0%

CCOC(=O)N(C)COc1nc(N)nc2c1sc(=O)n2[C@@H]1O[C@H](CO)[C@@H](O)[C@H]1O [Compound 84, (5-Amino-2-oxo-3-β-D-ribofuranosyl-2,3-dihydro-thiazolo[4,5-d]pyrimidin-7-yloxymethyl)-methyl-carbamic acid ethyl ester]
Emax at 100 µM [1, 6]: 0%

CC(=O)OC[C@H]1O[C@@H](n2c(=O)sc3c(OCc4oc(=O)oc4C)nc(N)nc32)[C@H](OC(C)=O)[C@@H]1OC(C)=O [Compound 85, 5-Amino-7-(5-methyl-2-oxo-[1,3]dioxol-4-ylmethoxy)-3-(2′,3′,5′-tri-O-acetyl-β-D-ribofuranosyl)-thiazolo[4,5-d]pyrimidin-2-one]
Emax at 100 µM [1, 6]: 0%

[2-Ethoxymethyl-1-(2-hydroxy-2-methyl-propyl)-1H-imidazo[4,5-c]quinolin-4-yl]-carbamic acid ethyl ester [Compound 39]
Amount of INFa relative to that induced by isatoribine at 100 μM ([1]; Table 12, 1 μM, 24 hours exposure): 95 @ 1 μM %
